Results from patent US10323022B2, “Pyrrolidinyl urea, pyrrolidinyl thiourea and pyrrolidinyl guanidine compounds as TrkA kinase inhibitors” (Array BioPharma Inc., priority 2011, dated 2019).
Counter-ions that a name gives are not always drawn.

Biological target: TrkA (Homo sapiens (Human), UniProt P04629)
Assay: TrkA Omnia Assay
Assay type: biochemical
Details: averaged IC50; 20 nM enzyme, 500 μM ATP, 10 μM peptide substrate
Experimental: Trk enzymatic selectivity was assessed using Omnia™ Kinase Assay reagents from Invitrogen Corp. Enzyme (TrkA from Invitrogen Corp.) and test compound (various concentrations) were incubated for 10 minutes at ambient temperature in a 384-well white polypropylene plate (Nunc catalog#267462). Omnia Tyr Peptide #4, as well as ATP, were then added to the plate. Final concentrations were as follows: 20 nM enzyme, 500 μM of ATP, 10 μM peptide substrate. The assay buffer consisted of 25 mM MOPS pH 7.5, 0.005% (v/v) Triton X-100 and 5 mM MgCl2. The production of phosphorylated peptide was monitored continuously for 70 minutes using a Molecular Devices FlexStation II^384 microplate reader (excitation=360 nm; emission=485 nm). Initial rates were calculated from the progress curves. IC50 values were calculated from these rates using either a 4 or 5-parameter logistic curve fit.

TrkA, sequence (P04629 33-796): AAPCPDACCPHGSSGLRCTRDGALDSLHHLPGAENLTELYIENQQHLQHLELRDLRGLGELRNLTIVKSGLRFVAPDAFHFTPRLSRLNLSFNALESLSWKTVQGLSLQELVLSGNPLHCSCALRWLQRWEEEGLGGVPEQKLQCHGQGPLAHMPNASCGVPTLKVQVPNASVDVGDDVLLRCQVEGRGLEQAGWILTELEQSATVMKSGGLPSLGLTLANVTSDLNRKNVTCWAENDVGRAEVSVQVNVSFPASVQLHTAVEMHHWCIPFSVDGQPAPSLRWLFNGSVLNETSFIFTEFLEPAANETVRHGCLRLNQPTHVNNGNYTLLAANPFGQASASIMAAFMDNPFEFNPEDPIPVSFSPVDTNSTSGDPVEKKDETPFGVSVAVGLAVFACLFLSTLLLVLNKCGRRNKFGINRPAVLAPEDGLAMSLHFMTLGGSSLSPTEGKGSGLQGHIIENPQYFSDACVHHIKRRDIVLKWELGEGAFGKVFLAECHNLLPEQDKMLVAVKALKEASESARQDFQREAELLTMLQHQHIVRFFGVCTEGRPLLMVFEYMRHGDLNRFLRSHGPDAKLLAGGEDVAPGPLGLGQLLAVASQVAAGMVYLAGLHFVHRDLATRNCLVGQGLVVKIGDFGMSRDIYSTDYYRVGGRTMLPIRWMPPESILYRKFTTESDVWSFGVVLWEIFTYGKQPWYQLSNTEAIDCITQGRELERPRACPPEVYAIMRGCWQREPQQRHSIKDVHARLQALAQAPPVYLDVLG

IC50	Compound
< 100 nM	COCCN1C[C@@H](NC(=O)Nc2c(C)c(C)nn2-c2ccccc2)[C@H](c2ccccc2)C1 (relative stereo) [Example 18, 1-(3,4-dimethyl-1-phenyl-1H-pyrazol-5-yl)-3-(trans-1-(2-methoxyethyl)-4-phenylpyrrolidin-3-yl)urea]
< 100 nM	COCCN1C[C@@H](NC(=O)Nc2c(C)c(-c3ccccc3)nn2-c2ccccc2)[C@H](c2cc(F)cc(F)c2)C1 [Example 329, 1-((3S,4R)-4-(3,5-difluorophenyl)-1-(2-methoxyethyl)pyrrolidin-3-yl)-3-(4-methyl-1,3-diphenyl-1H-pyrazol-5-yl)urea]
< 100 nM	CCOc1nn(-c2ccccc2)c(NC(=O)N[C@@H]2CN(CCOC)C[C@H]2c2cc(F)cc(F)c2)c1C [Example 138, 1-((3S,4R)-4-(3,5-difluorophenyl)-1-(2-methoxyethyl)pyrrolidin-3-yl)-3-(3-ethoxy-4-methyl-1-phenyl-1H-pyrazol-5-yl)urea]
< 100 nM	COCCN1C[C@@H](NC(=O)Nc2c(C)c(OC[C@H](C)O)nn2-c2ccccc2)[C@H](c2cc(F)cc(F)c2)C1 [Example 537, 1-((3S,4R)-4-(3,5-difluorophenyl)-1-(2-methoxyethyl)pyrrolidin-3-yl)-3-(3-((S)-2-hydroxypropoxy)-4-methyl-1-phenyl-1H-pyrazol-5-yl)urea dihydrochloride]
< 100 nM	COCCN1C[C@@H](NC(=O)Nc2c(C)c(-c3ccccc3)nn2-c2ccccc2)[C@H](c2cncc(F)c2)C1 (relative stereo) [Example 344, 1-(trans-4-(5-fluoropyridin-3-yl)-1-(2-methoxyethyl)pyrrolidin-3-yl)-3-(4-methyl-1,3-diphenyl-1H-pyrazol-5-yl)urea]
100 to 1000 nM	COCCN1C[C@@H](NC(=O)Nc2c(Cl)c(-c3cnn(C)c3)nn2C)[C@H](c2ccc(F)c(F)c2)C1 [Example 567, 1-(4-chloro-1,1′-dimethyl-1H, 1′H-[3,4′-bipyrazol]-5-yl)-3-((3S,4R)-4-(3,4-difluorophenyl)-1-(2-methoxyethyl)pyrrolidin-3-yl)urea]
100 to 1000 nM	COCCN1C[C@@H](NC(=O)Nc2c(F)c(-c3cnn(C)c3)nn2-c2ccccc2)[C@H](c2cncc(F)c2)C1 [Example 432, 1-(4-fluoro-1′-methyl-1-phenyl-1H,1′H-[3,4′-bipyrazol]-5-yl)-3-((3S,4R)-4-(5-fluoropyridin-3-yl)-1-(2-methoxyethyl)pyrrolidin-3-yl)urea]
< 100 nM	COCCN1C[C@@H](NC(=O)Nc2cc(C(C)(C)C)nn2-c2ccccc2)[C@H](c2ccccc2)C1 [Example 1, 1-(3-tert-butyl-1-phenyl-H-pyrazol-5-yl)-3-(trans-1-(2-methoxyethyl)-4-phenylpyrrolidin-3-yl)urea]
100 to 1000 nM	COCCN1C[C@@H](NC(=O)Nc2c3c(nn2-c2ccccc2)CCC3)[C@H](c2ccno2)C1 (relative stereo) [Example 47, 1-(trans-4-(isoxazol-5-yl)-1-(2-methoxyethyl)pyrrolidin-3-yl)-3-(2-phenyl-2,4,5,6-tetrahydrocyclopenta[c]pyrazol-3-yl)urea]
< 100 nM	CCc1nn(-c2ccccc2)c(NC(=O)N[C@@H]2CN(CCOC)C[C@H]2c2ccc(F)c(F)c2)c1C#N [Example 616, 1-(4-cyano-3-ethyl-1-phenyl-1H-pyrazol-5-yl)-3-((3S,4R)-4-(3,4-difluorophenyl)-1-(2-methoxyethyl)pyrrolidin-3-yl)urea.]

Compound	IC50
COCCN1C[C@@H](NC(=O)Nc2c(C)c(OC[C@H](COC)O[Si](C)(C)C(C)(C)C)nn2-c2ccccc2)[C@H](c2ccc(F)c(F)c2)C1 [Example 402, 1-(3-((S)-2-(tert-butyldimethylsilyloxy)-3-methoxypropoxy)-4-methyl-1-phenyl-1H-pyrazol-5-yl)-3-((3S,4R)-4-(3,4-difluorophenyl)-1-(2-methoxyethyl)pyrrolidin-3-yl)urea_]	100 to 1000 nM
